Consider 14 compounds from article PMC7991740, “Introduction of Non-natural Amino Acids Into T-Cell Epitopes to Mitigate Peptide-Specific T-Cell Responses” (Frontiers in Immunology, 2021).

Like-named read-outs stand apart in the source and are kept apart here. Where a SMILES comes first, the peptide text is derived from it. [ ]: non-standard residue; d: D form. Aib = CC(C)(N)C(=O)O

One may read the IC50 as the point on the concentration scale where inhibition reaches its midpoint.

Test in all cases: biochemical
Common to all, as to assay type: binding

The target in one assay is T1, HLA-DRB1*01:01 (Homo sapiens, UniProt P01903+P01911, A100R/D57E/F55L/F60I/F76Y/I96L/L162R/M171V/P40L/Q125E/R42F/V115G/Y59C).
T1 construct: Human leukocyte antigen-DR molecules were immunopurified from homozygous EBV B lymphoblastoid cells; endogenous in cells

For a further assay, the target named is HLA-DRB1*07:01 (Homo sapiens, UniProt P01903+P01911, A100R/A102G/A103Q/D57E/D86V/E43K/F76Y/K127E/L162R/M171V/P40G/Q125H/Q99D/R33Q/R42Y/R54Q/S133A/S66F/T210M/V115G/Y107V/Y59L/Y89S).
The next assay deals with T2, HLA-DRB1*04:01 (Homo sapiens, UniProt P01903+P01911, A100K/A169T/F76Y/I96L/K127E/L162R/M171V/N62H/P40V/Q125Y/R42H/S133A/S149N/S66Y/V115G/V209L/W38E).
T2 construct: Human leukocyte antigen-DR molecules were immunopurified from homozygous EBV B lymphoblastoid cells; endogenous in cells

For the next assay, the target named is HLA-DRB1*11:01 (Homo sapiens, UniProt P01903+P01911, A100R/A169T/A87E/I96F/K41T/L162R/M171V/P40S/Q125H/Q178H/Q39Y/Q99D/R42S/S66Y/T262R/V115G/W38E).
Sequence of HLA-DRB1*11:01 (P01903 26-254 limits assumed, other chains not shown): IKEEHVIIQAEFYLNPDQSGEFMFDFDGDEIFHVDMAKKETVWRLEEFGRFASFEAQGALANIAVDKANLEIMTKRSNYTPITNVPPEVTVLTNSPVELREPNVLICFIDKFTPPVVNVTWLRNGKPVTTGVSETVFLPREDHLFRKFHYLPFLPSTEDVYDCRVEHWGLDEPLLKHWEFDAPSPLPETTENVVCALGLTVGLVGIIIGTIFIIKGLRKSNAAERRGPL
The target in a further assay is T3, HLA-DRB5*01:01 (Homo sapiens, UniProt P01903+Q30154).
T3 construct: Human leukocyte antigen-DR molecules were immunopurified from homozygous EBV B lymphoblastoid cells; endogenous in cells

The mark [1] stands for this setting: […], mean of at least two independent experiments, read-out: IC50 DRB1*0101.
The mark [2] stands for this setting: […], mean of at least two independent experiments, read-out: IC50 DRB1*0701 (converted).
[3] abbreviates: […], mean of at least two independent experiments, read-out: IC50 DRB1*0401.
[4] abbreviates: […], mean of at least two independent experiments, read-out: IC50 DRB1*1101 (converted).
The mark [5] stands for this setting: […], mean of at least two independent experiments, read-out: IC50 DRB5*0101.

As for `CC(C)C[C@H](NC(=O)[C@H](CCCCN)NC(=O)[C@H](CC(C)C)NC(=O)[C@@H](NC(=O)CN(CC(N)=O)C(=O)[C@H](CCC(N)=O)NC(=O)[C@H](CCCCN)NC(=O)[C@@H](NC(=O)[C@H](Cc1ccc(O)cc1)NC(=O)[C@H](CCCCN)NC(=O)[C@@H]1CCCN1)C(C)C)[C@@H](C)O)C(=O)N[C@@H](C)C(=O)N[C@H](C(=O)O)[C@@H](C)O` [Pep7], the half-inhibitory concentration (IC50) against HLA-DRB1*01:01 (IC50 DRB1*0101) is 0.3 nM; against HLA-DRB1*07:01, 16 nM; against HLA-DRB1*04:01 it was 450 nM; against HLA-DRB1*11:01, 200 nM; against HLA-DRB5*01:01 it was 15 nM.
Consider `CC(C)C[C@H](NC(=O)[C@@H](NC(=O)[C@H](CC(N)=O)NC(=O)[C@H](CCC(N)=O)NC(=O)[C@H](CCCCN)NC(=O)[C@@H](NC(=O)[C@H](Cc1ccc(O)cc1)NC(=O)[C@H](CCCCN)NC(=O)[C@@H]1CCCN1)C(C)C)[C@@H](C)O)C(=O)NC(C)(C)C(=O)N[C@@H](CC(C)C)C(=O)N[C@@H](C)C(=O)N[C@H](C(=O)O)[C@@H](C)O` [Aib10], for which the IC50 at HLA-DRB1*01:01 (setting [1]) was 9 nM; on HLA-DRB1*07:01 (setting [2]), 16000 nM; on HLA-DRB1*04:01 (setting [3]), 490 nM; at HLA-DRB1*11:01 (setting [4]) it was 8000 nM; at HLA-DRB5*01:01 (setting [5]), 5000 nM.
For the compound `CC(C)C[C@H](NC(=O)[C@H](CCCCN)NC(=O)[C@H](CC(C)C)NC(=O)[C@@H](NC(=O)[C@H](CC(N)=O)NC(=O)[C@H](CCC(N)=O)NC(=O)[C@H](CCCCN)NC(=O)C(C)(C)NC(=O)[C@H](Cc1ccc(O)cc1)NC(=O)[C@H](CCCCN)NC(=O)[C@@H]1CCCN1)[C@@H](C)O)C(=O)N[C@@H](C)C(=O)N[C@H](C(=O)O)[C@@H](C)O` [Aib4], the IC50 is 10 nM on HLA-DRB1*01:01 (setting [1]); 6000 nM at HLA-DRB1*07:01 (setting [2]); 75 nM on HLA-DRB1*04:01 (setting [3]); 4000 nM on HLA-DRB1*11:01 (setting [4]); 280 nM at HLA-DRB5*01:01 (setting [5]).
Regarding `CC(C)C[C@H](NC(=O)[C@H](CCCCN)NC(=O)[C@H](CC(C)C)NC(=O)[C@@H](NC(=O)C(C)(C)NC(=O)[C@H](CCC(N)=O)NC(=O)[C@H](CCCCN)NC(=O)[C@@H](NC(=O)[C@H](Cc1ccc(O)cc1)NC(=O)[C@H](CCCCN)NC(=O)[C@@H]1CCCN1)C(C)C)[C@@H](C)O)C(=O)N[C@@H](C)C(=O)N[C@H](C(=O)O)[C@@H](C)O` [Aib7] (H-PKYVKQ[Aib]TLKLAT-OH), the IC50 on HLA-DRB1*01:01 (setting [1]) is 6.8 nM; on HLA-DRB1*07:01 (setting [2]) it was 4200 nM; at HLA-DRB1*04:01 (setting [3]) it was 45 nM; at HLA-DRB1*11:01 (setting [4]), 6000 nM; at HLA-DRB5*01:01 (setting [5]), 900 nM.
Taken in the same sequence, the figures for `CC(C)C[C@H](NC(=O)[C@@H](NC(=O)[C@H](CC(N)=O)NC(=O)[C@H](CCC(N)=O)NC(=O)[C@H](CCCCN)NC(=O)[C@@H](NC(=O)[C@H](Cc1ccc(O)cc1)NC(=O)[C@H](CCCCN)NC(=O)[C@@H]1CCCN1)C(C)C)[C@@H](C)O)C(=O)N[C@@H](CCCCN)C(=O)NC(C)(C)C(=O)N[C@@H](C)C(=O)N[C@H](C(=O)O)[C@@H](C)O` [Aib11] were 20 nM, 3000 nM, 25 nM, 350 nM and 95 nM.
For `CC(C)C[C@H](NC(=O)[C@H](CCCCN)NC(=O)[C@H](CC(C)C)NC(=O)[C@@H](NC(=O)[C@H](CC(N)=O)NC(=O)[C@H](CCC(N)=O)NC(=O)[C@H](CCCCN)NC(=O)CN(C(=O)[C@H](Cc1ccc(O)cc1)NC(=O)[C@H](CCCCN)NC(=O)[C@@H]1CCCN1)C(C)C)[C@@H](C)O)C(=O)N[C@@H](C)C(=O)N[C@H](C(=O)O)[C@@H](C)O` [Pep4], the IC50 on HLA-DRB1*01:01 (setting [1]) is 5 nM; on HLA-DRB1*07:01 (setting [2]), 710 nM; at HLA-DRB1*04:01 (setting [3]), 14 nM; on HLA-DRB1*11:01 (setting [4]), 6000 nM; at HLA-DRB5*01:01 (setting [5]), 280 nM.
Consider `CC(C)C[C@H](NC(=O)[C@H](CCCCN)NC(=O)[C@H](CC(C)C)NC(=O)[C@@H](NC(=O)[C@H](CC(N)=O)NC(=O)CN(CCC(N)=O)C(=O)[C@H](CCCCN)NC(=O)[C@@H](NC(=O)[C@H](Cc1ccc(O)cc1)NC(=O)[C@H](CCCCN)NC(=O)[C@@H]1CCCN1)C(C)C)[C@@H](C)O)C(=O)N[C@@H](C)C(=O)N[C@H](C(=O)O)[C@@H](C)O` [Pep6], for which the IC50 is 0.4 nM at HLA-DRB1*01:01 (setting [1]); 290 nM on HLA-DRB1*07:01 (setting [2]); 82 nM on HLA-DRB1*04:01 (setting [3]); 45 nM at HLA-DRB1*11:01 (setting [4]); 10 nM on HLA-DRB5*01:01 (setting [5]).
Taken in the same sequence, the figures for `CC(C)C[C@H](NC(=O)[C@H](CCCCN)NC(=O)[C@H](CC(C)C)NC(=O)C(C)(C)NC(=O)[C@H](CC(N)=O)NC(=O)[C@H](CCC(N)=O)NC(=O)[C@H](CCCCN)NC(=O)[C@@H](NC(=O)[C@H](Cc1ccc(O)cc1)NC(=O)[C@H](CCCCN)NC(=O)[C@@H]1CCCN1)C(C)C)C(=O)N[C@@H](C)C(=O)N[C@H](C(=O)O)[C@@H](C)O` [Aib8] were 0.8 nM, 90 nM, 140 nM, 550 nM and 140 nM.
With `CC(C)C[C@H](NC(=O)[C@H](CCCCN)NC(=O)[C@H](CC(C)C)NC(=O)[C@@H](NC(=O)[C@H](CC(N)=O)NC(=O)[C@H](CCC(N)=O)NC(=O)[C@H](CCCCN)NC(=O)[C@@H](NC(=O)[C@H](Cc1ccc(O)cc1)NC(=O)[C@H](CCCCN)NC(=O)C(C)(C)N)C(C)C)[C@@H](C)O)C(=O)N[C@@H](C)C(=O)N[C@H](C(=O)O)[C@@H](C)O` [Aib1] (H-[Aib]KYVKQNTLKLAT-OH), the IC50 at HLA-DRB1*01:01 (setting [1]) was 0.3 nM; at HLA-DRB1*07:01 (setting [2]) it was 11 nM; at HLA-DRB1*04:01 (setting [3]) it was 20 nM; at HLA-DRB1*11:01 (setting [4]), 18 nM; on HLA-DRB5*01:01 (setting [5]), 3 nM.
Taken in the same sequence, the figures for `CC(C)C[C@H](NC(=O)[C@@H](NC(=O)[C@H](CC(N)=O)NC(=O)[C@H](CCC(N)=O)NC(=O)[C@H](CCCCN)NC(=O)[C@@H](NC(=O)[C@H](Cc1ccc(O)cc1)NC(=O)[C@H](CCCCN)NC(=O)[C@@H]1CCCN1)C(C)C)[C@@H](C)O)C(=O)N[C@@H](CCCCN)C(=O)N[C@@H](CC(C)C)C(=O)N(C)CC(=O)N[C@H](C(=O)O)[C@@H](C)O` [Pep12] were 0.3 nM, 10 nM, 4 nM, 14 nM and 3 nM.
`CC(C)C[C@H](NC(=O)[C@H](CCCCN)NC(=O)[C@H](CC(C)C)NC(=O)[C@@H](NC(=O)[C@H](CC(N)=O)NC(=O)[C@H](CCC(N)=O)NC(=O)[C@H](CCCCN)NC(=O)[C@@H](NC(=O)[C@H](Cc1ccc(O)cc1)NC(=O)C(C)(C)NC(=O)[C@@H]1CCCN1)C(C)C)[C@@H](C)O)C(=O)N[C@@H](C)C(=O)N[C@H](C(=O)O)[C@@H](C)O` [Aib2] (H-P[Aib]YVKQNTLKLAT-OH): the IC50 was 8 nM on HLA-DRB1*01:01 (setting [1]); 7700 nM on HLA-DRB1*07:01 (setting [2]); 95 nM on HLA-DRB1*04:01 (setting [3]); 4000 nM on HLA-DRB1*11:01 (setting [4]); 500 nM on HLA-DRB5*01:01 (setting [5]).
For `CC(C)C[C@H](NC(=O)[C@H](CCCCN)NC(=O)[C@H](CC(C)C)NC(=O)[C@@H](NC(=O)[C@H](CC(N)=O)NC(=O)C(C)(C)NC(=O)[C@H](CCCCN)NC(=O)[C@@H](NC(=O)[C@H](Cc1ccc(O)cc1)NC(=O)[C@H](CCCCN)NC(=O)[C@@H]1CCCN1)C(C)C)[C@@H](C)O)C(=O)N[C@@H](C)C(=O)N[C@H](C(=O)O)[C@@H](C)O` [Aib6], in that order: 0.7 nM, 75 nM, 55000 nM, 150 nM and 5 nM.
For `CC(C)C[C@H](NC(=O)[C@H](CCCCN)NC(=O)[C@H](CC(C)C)NC(=O)[C@@H](NC(=O)[C@H](CC(N)=O)NC(=O)[C@H](CCC(N)=O)NC(=O)[C@H](CCCCN)NC(=O)[C@@H](NC(=O)CN(Cc1ccc(O)cc1)C(=O)[C@H](CCCCN)NC(=O)[C@@H]1CCCN1)C(C)C)[C@@H](C)O)C(=O)N[C@@H](C)C(=O)N[C@H](C(=O)O)[C@@H](C)O` [Pep3], in that order: 4000 nM, over 100000 nM, over 10000 nM, over 100000 nM and 14000 nM.
Consider `CC(C)C[C@H](NC(=O)[C@H](CCCCN)NC(=O)[C@H](CC(C)C)NC(=O)[C@@H](NC(=O)[C@H](CC(N)=O)NC(=O)[C@H](CCC(N)=O)NC(=O)C(C)(C)NC(=O)[C@@H](NC(=O)[C@H](Cc1ccc(O)cc1)NC(=O)[C@H](CCCCN)NC(=O)[C@@H]1CCCN1)C(C)C)[C@@H](C)O)C(=O)N[C@@H](C)C(=O)N[C@H](C(=O)O)[C@@H](C)O` [Aib5], for which the half-inhibitory concentration (IC50) at HLA-DRB1*01:01 (setting [1]) is 1 nM; on HLA-DRB1*07:01 (setting [2]) it was 780 nM; on HLA-DRB1*04:01 (setting [3]), 30 nM; on HLA-DRB1*11:01 (setting [4]), 300 nM; at HLA-DRB5*01:01 (setting [5]), 600 nM.
